One data set concerns the target T1, eIF4G1 (Homo sapiens, UniProt Q04637).
T1 construct: The pET-28-His-bdSumo-eIF4G1 (675-1129) was generated using eIF4G1 (675-1129) as insert and pET-28-14His-bdSumo as backbone; bdSUMO (N); made in house; host or cells: E. coli BL21
As to the kind of experiment: Intrinsic fluorescence of His-eIF4G1. It is filed as binding. Conditions: 0-256 μM, 5 minutes, excitation 280 nm, emission 350 nm; read-out: IC50, loss of eIF4G1 intrinsic fluorescence. An excerpt:
FIGS. 1A-G: Identification and initial characterization of eIF1-eIF4G1 inhibitors using a high-throughput drug screen (HTS). (1A) A flowchart describing the steps of the recombinant eIF1-eIF4G1 split-RL HTS. (1B) Selection of drugs that inhibit leaky scanning. HEK293T cells were transfected with a short 5′UTR bearing GFP reporter gene described on the top, treated with the indicated HTS hits, and then analyzed by western blot with GFP antibody. US and DS denote upstream and downstream AUG initiation sites, respectively. (1C) A graph showing the change in the ratio of the upstream and downstream AUG following treatment with the indicated drugs. (1D) The chemical structure of the eIF1-eIF4G1 inhibitors, i14G1-10 and i14G1-12. (1E) His-tagged eIF4G1 and His-tagged eIF1 were expressed in BL21 bacteria and purified using nickel NTA beads. Purified His-tagged eIF4G1 and His-tagged eIF1 were incubated with the indicated doses of either i14G1-10 (0-256 μM) or i14G1-12 (0-256 μM) for 5 minutes, followed by fluorescence measurement. […] IC50 was calculated using Graphpad prism 9. […]
Intrinsic fluorescence of His-eIF1 and His-eIF4G1. […] After 5 minutes, fluorescence (280/350) was measured on Cytation 5 multi-mode reader (Biotek). The fluorescence intensity values corresponding to respective concentration in both i14G1-10 and i14G1-12 treatments were plotted and IC50 was calculated using GraphPad Prism 9.0. […]

The next data set relates to human blood cells. Description: Effect on host blood cells in the parasitemia assay. As to conditions: i14G1-10 20 uM, i14G1-12 10 uM; 1 hour.

pIC50: −log10 of the molar value.

T1 sequence (Q04637 675-1129): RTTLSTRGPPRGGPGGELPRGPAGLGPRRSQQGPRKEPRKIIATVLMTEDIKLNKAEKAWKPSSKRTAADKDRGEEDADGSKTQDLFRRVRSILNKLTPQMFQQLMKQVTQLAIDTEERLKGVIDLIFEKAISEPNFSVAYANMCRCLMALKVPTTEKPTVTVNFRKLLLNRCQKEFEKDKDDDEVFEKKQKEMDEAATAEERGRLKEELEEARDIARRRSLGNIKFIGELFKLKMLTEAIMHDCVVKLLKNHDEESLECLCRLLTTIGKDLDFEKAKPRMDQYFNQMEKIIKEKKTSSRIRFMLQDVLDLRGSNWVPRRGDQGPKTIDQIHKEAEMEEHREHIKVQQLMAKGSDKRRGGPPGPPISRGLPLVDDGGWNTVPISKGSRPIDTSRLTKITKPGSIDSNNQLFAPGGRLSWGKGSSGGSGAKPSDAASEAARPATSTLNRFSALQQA
Method for human blood cells: Parasitemia assay. The NF54 strain of the Plasmodium falciparum was used for the Survival test. Parasites were grown in RPMI medium pH 7.4, 25 mg/ml HEPES, 50 μg/ml hypoxanthine, 2 mg/ml sodium bicarbonate, 20 μg/ml gentamycin, and 0.5% (w/v) Albumax II (Invitrogen). Pooled donor red blood cells, provided by the Israeli blood bank, at 4% hematocrit, and incubated at 37° C. in a gas mixture of 1% 02, 5% CO2 in N2 were used.
Parasitaemia levels were measured 24 hours later.

In the case of `Cn1ccnc1S/C(=C/C=C(C#N)C#N)c1ccc(Cl)cc1` [i14G1-12], the negative-log IC50 (pIC50) (as a rule, −log10 of the IC50, conventionally taken in molar units) on eIF4G1 is 4.23.
Turning to `O=C(/C=C/Sc1ccc(C(F)(F)F)cn1)c1ccccc1` [i14G1-10], in the data set with human blood cells, the “effect on human blood cells” value was “not adversely affected”.

The record behind these values is US20250090510A1, “eIF4G1-eIF1 INHIBITORS AND USE THEREOF” (YEDA RESEARCH AND DEVELOPMENT CO. LTD., priority 2022, published 2025).
